# Data reported in ChEMBL document CHEMBL3885881, “DrugMatrix”.
# Species on record: Rattus norvegicus
# Assay: DrugMatrix - Regimen: Daily Repeat
# Format: toxicity, organism-based, Sprague-Dawley
# Set-up: regimen Daily Repeat, gender Male, age 6-8 weeks
# Settings: in vivo, po, route oral GAVAGE, […]; for ABSOLUTE BASOPHIL / ABSOLUTE EOSINOPHIL / ABSOLUTE LYMPHOCYTE / ABSOLUTE MONOCYTE / ABSOLUTE SEGMENTED NEUTROPHIL / BASOPHIL / EOSINOPHIL / ERYTHROCYTE COUNT / HEMATOCRIT / HEMOGLOBIN / LEUKOCYTE COUNT / LYMPHOCYTE / MEAN CORPUSCULAR HEMOGLOBIN / MEAN CORPUSCULAR HEMOGLOBIN CONCENTRATION / MEAN CORPUSCULAR VOLUME / MONOCYTE / NEUTROPHIL / NUCLEATED RED BLOOD CELLS / PLATELET COUNT: tissue Blood; for ALANINE AMINOTRANSFERASE / ALBUMIN / ALKALINE PHOSPHATASE / ASPARTATE AMINOTRANSFERASE / BLOOD UREA NITROGEN / CARBON DIOXIDE / CHLORIDE / CHOLESTEROL / CREATINE PHOSPHOKINASE / CREATININE / GLUCOSE / LACTATE DEHYDROGENASE / LIPASE / PHOSPHORUS / POTASSIUM / SODIUM / TOTAL BILIRUBIN / TOTAL PROTEIN / URIC ACID: tissue Plasma
# [1] = 0 mg/kg, 72 h, dose level Control, time 3 day
# [2] = 0 mg/kg, 120 h, dose level Control, time 5 day
# [3] = 50 mg/kg, 72 h, dose level Low, time 3 day
compound,measurement,setting,value
COC(=O)Nc1nc2ccc(C(=O)c3ccccc3)cc2[nH]1 [MEBENDAZOLE],ABSOLUTE BASOPHIL,[1],0 CELLS/uL
same,ABSOLUTE EOSINOPHIL,[1],0 CELLS/uL
same,ABSOLUTE LYMPHOCYTE,[1],9244.83 CELLS/uL
same,ABSOLUTE MONOCYTE,[1],102 CELLS/uL
same,ABSOLUTE SEGMENTED NEUTROPHIL,[1],869.83 CELLS/uL
same,BASOPHIL,[1],0%
same,EOSINOPHIL,[1],0%
same,ERYTHROCYTE COUNT,[1],5.43 x10E6/uL
same,HEMATOCRIT,[1],34.03%
same,HEMOGLOBIN,[1],13.27 G/DL
same,LEUKOCYTE COUNT,[1],10.22 x10E3/uL
same,LYMPHOCYTE,[1],90.33%
same,MEAN CORPUSCULAR HEMOGLOBIN,[1],24.48 pg
same,MEAN CORPUSCULAR HEMOGLOBIN CONCENTRATION,[1],39.03 G/DL
same,MEAN CORPUSCULAR VOLUME,[1],62.75 fL
same,MONOCYTE,[1],1%
same,NEUTROPHIL,[1],8.67%
same,NUCLEATED RED BLOOD CELLS,[1],0.17 /100WBC
same,PLATELET COUNT,[1],989 x10E3/uL
same,ALANINE AMINOTRANSFERASE,[1],77 u/L
same,ALBUMIN,[1],3.97 G/DL
same,ALKALINE PHOSPHATASE,[1],464.83 u/L
same,ASPARTATE AMINOTRANSFERASE,[1],89.83 u/L
same,BLOOD UREA NITROGEN,[1],12.17 mg/dL
same,CARBON DIOXIDE,[1],34.17 mmol/L
same,CHLORIDE,[1],98.33 MEQ/L
same,CHOLESTEROL,[1],75.17 mg/dL
same,CREATINE PHOSPHOKINASE,[1],367.67 u/L
same,CREATININE,[1],0.16 mg/dL
same,GLUCOSE,[1],142.67 mg/dL
same,LACTATE DEHYDROGENASE,[1],139.33 u/L
same,LIPASE,[1],9.5 u/L
same,PHOSPHORUS,[1],10.85 mg/dL
same,POTASSIUM,[1],6.38 MEQ/L
same,SODIUM,[1],143.2 MEQ/L
same,TOTAL BILIRUBIN,[1],0.2 mg/dL
same,TOTAL PROTEIN,[1],5.77 G/DL
same,URIC ACID,[1],0.7 mg/dL
same,ABSOLUTE BASOPHIL,[2],0 CELLS/uL
same,ABSOLUTE EOSINOPHIL,[2],0 CELLS/uL
same,ABSOLUTE LYMPHOCYTE,[2],8295.33 CELLS/uL
same,ABSOLUTE MONOCYTE,[2],84.67 CELLS/uL
same,ABSOLUTE SEGMENTED NEUTROPHIL,[2],970 CELLS/uL
same,BASOPHIL,[2],0%
same,EOSINOPHIL,[2],0%
same,ERYTHROCYTE COUNT,[2],5.74 x10E6/uL
same,HEMATOCRIT,[2],36.22%
same,HEMOGLOBIN,[2],13.85 G/DL
same,LEUKOCYTE COUNT,[2],9.35 x10E3/uL
same,LYMPHOCYTE,[2],88.67%
same,MEAN CORPUSCULAR HEMOGLOBIN,[2],24.13 pg
same,MEAN CORPUSCULAR HEMOGLOBIN CONCENTRATION,[2],38.25 G/DL
same,MEAN CORPUSCULAR VOLUME,[2],63.08 fL
same,MONOCYTE,[2],1%
same,NEUTROPHIL,[2],10.33%
same,NUCLEATED RED BLOOD CELLS,[2],0.17 /100WBC
same,PLATELET COUNT,[2],883.83 x10E3/uL
same,ALANINE AMINOTRANSFERASE,[2],64.5 u/L
same,ALBUMIN,[2],4.12 G/DL
same,ALKALINE PHOSPHATASE,[2],425.67 u/L
same,ASPARTATE AMINOTRANSFERASE,[2],88.5 u/L
same,BLOOD UREA NITROGEN,[2],14.17 mg/dL
same,CARBON DIOXIDE,[2],30.5 mmol/L
same,CHLORIDE,[2],100.33 MEQ/L
same,CHOLESTEROL,[2],55.33 mg/dL
same,CREATINE PHOSPHOKINASE,[2],287.17 u/L
same,CREATININE,[2],0.2 mg/dL
same,GLUCOSE,[2],162.83 mg/dL
same,LACTATE DEHYDROGENASE,[2],111.33 u/L
same,LIPASE,[2],10.5 u/L
same,PHOSPHORUS,[2],10.32 mg/dL
same,POTASSIUM,[2],5.13 MEQ/L
same,SODIUM,[2],143.93 MEQ/L
same,TOTAL BILIRUBIN,[2],0.17 mg/dL
same,TOTAL PROTEIN,[2],5.9 G/DL
same,URIC ACID,[2],0.77 mg/dL
same,ABSOLUTE BASOPHIL,[3],0 CELLS/uL
same,ABSOLUTE EOSINOPHIL,[3],0 CELLS/uL
same,ABSOLUTE LYMPHOCYTE,[3],11176.67 CELLS/uL
same,ABSOLUTE MONOCYTE,[3],118.33 CELLS/uL
same,ABSOLUTE SEGMENTED NEUTROPHIL,[3],1305 CELLS/uL
same,BASOPHIL,[3],0%
same,EOSINOPHIL,[3],0%
same,ERYTHROCYTE COUNT,[3],5.06 x10E6/uL
same,HEMATOCRIT,[3],32%
same,HEMOGLOBIN,[3],12.6 G/DL
same,LEUKOCYTE COUNT,[3],12.6 x10E3/uL
same,LYMPHOCYTE,[3],89.33%
same,MEAN CORPUSCULAR HEMOGLOBIN,[3],24.93 pg
same,MEAN CORPUSCULAR HEMOGLOBIN CONCENTRATION,[3],39.43 G/DL
same,MEAN CORPUSCULAR VOLUME,[3],63.27 fL
same,MONOCYTE,[3],1%
same,NEUTROPHIL,[3],9.67%
same,NUCLEATED RED BLOOD CELLS,[3],0 /100WBC
same,PLATELET COUNT,[3],983 x10E3/uL
same,ALANINE AMINOTRANSFERASE,[3],78 u/L
same,ALBUMIN,[3],3.87 G/DL
same,ALKALINE PHOSPHATASE,[3],423.67 u/L
same,ASPARTATE AMINOTRANSFERASE,[3],86.33 u/L
same,BLOOD UREA NITROGEN,[3],12.33 mg/dL
same,CARBON DIOXIDE,[3],32 mmol/L
same,CHLORIDE,[3],100 MEQ/L
same,CHOLESTEROL,[3],74.67 mg/dL
same,CREATINE PHOSPHOKINASE,[3],274.33 u/L
same,CREATININE,[3],0.25 mg/dL
same,GLUCOSE,[3],142.67 mg/dL
same,LACTATE DEHYDROGENASE,[3],145 u/L
same,LIPASE,[3],11 u/L
same,PHOSPHORUS,[3],11.2 mg/dL
same,POTASSIUM,[3],5.98 MEQ/L
same,SODIUM,[3],144.33 MEQ/L
same,TOTAL BILIRUBIN,[3],0.17 mg/dL
same,TOTAL PROTEIN,[3],5.53 G/DL
same,URIC ACID,[3],0.77 mg/dL
